The values that follow come from ChEMBL document CHEMBL5244211, “Current anti-diabetic agents and their molecular targets: A review” (Eur J Med Chem, 2018).

Assay [1] in a line: Inhibition of Calf ALR2 in presence of NADPH by UV spectrophotometric analysis. Also noted: species or system Bos taurus.
Assay [2] in a line: Inhibition of calf lens ALR2 using glyceraldehyde as substrate incubated for 5 mins in presence of NADPH by UV-spectrophotometric analysis. The format is tissue-based, Bos taurus.
Assay [3] has as its target Free fatty acid receptor 1 (Homo sapiens, UniProt O14842). The experiment in a line: Agonist activity at human GPR40 expressed in HEK293 cells incubated for 18 to 24 hrs by HTRF assay. The format is cell-based.
Assay [4] addresses T1, Glucose-dependent insulinotropic receptor (Homo sapiens, UniProt Q8TDV5).
T1 sequence (Q8TDV5 whole entry): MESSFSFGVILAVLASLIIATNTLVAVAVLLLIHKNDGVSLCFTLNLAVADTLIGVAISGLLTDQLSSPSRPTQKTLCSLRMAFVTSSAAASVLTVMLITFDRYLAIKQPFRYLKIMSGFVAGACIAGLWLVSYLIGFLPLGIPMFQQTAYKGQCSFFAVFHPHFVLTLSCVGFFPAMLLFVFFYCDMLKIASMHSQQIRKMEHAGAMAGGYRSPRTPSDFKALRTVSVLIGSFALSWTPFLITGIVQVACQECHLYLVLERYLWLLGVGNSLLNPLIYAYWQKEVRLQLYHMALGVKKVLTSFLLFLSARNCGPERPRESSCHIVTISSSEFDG
The experiment in a line: Agonist activity at human GPR119 expressed in HEK293S cells assessed as increase in intracellular cAMP level incubated for 45 mins by HTRF analysis. The assay is classed as cell-based. A general note: Cyclic AMP is a second messenger, typically raised through Gs and lowered through Gi signalling.

Assay [5] concerns the target T1, Glucose-dependent insulinotropic receptor. The assay is described as follows: Agonist activity at human GPR119 expressed in CHO-K1 cells assessed as increase in intracellular cAMP level incubated for 5 mins by fluorescence analysis. The assay is classed as cell-based.
Assay [6] concerns the target T2, Tyrosine-protein phosphatase non-receptor type 1 (Homo sapiens, UniProt P18031).
T2 sequence (P18031 whole entry): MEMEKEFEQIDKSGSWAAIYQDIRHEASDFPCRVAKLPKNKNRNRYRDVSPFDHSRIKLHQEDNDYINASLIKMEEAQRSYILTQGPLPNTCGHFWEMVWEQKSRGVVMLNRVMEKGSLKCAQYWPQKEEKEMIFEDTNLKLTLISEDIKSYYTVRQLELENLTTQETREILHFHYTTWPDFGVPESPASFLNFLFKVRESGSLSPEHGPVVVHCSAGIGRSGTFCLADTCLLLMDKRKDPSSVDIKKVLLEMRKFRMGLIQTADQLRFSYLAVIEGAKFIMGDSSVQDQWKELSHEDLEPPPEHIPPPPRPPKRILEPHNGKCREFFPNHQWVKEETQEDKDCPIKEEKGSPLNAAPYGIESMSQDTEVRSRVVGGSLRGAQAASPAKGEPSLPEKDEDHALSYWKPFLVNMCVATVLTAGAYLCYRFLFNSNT
The experiment in a line: Inhibition of PTP1B (unknown origin).

The target in assay [7] is T3, Tyrosine-protein phosphatase non-receptor type 2 (Homo sapiens, UniProt P17706).
T3 sequence (P17706 whole entry): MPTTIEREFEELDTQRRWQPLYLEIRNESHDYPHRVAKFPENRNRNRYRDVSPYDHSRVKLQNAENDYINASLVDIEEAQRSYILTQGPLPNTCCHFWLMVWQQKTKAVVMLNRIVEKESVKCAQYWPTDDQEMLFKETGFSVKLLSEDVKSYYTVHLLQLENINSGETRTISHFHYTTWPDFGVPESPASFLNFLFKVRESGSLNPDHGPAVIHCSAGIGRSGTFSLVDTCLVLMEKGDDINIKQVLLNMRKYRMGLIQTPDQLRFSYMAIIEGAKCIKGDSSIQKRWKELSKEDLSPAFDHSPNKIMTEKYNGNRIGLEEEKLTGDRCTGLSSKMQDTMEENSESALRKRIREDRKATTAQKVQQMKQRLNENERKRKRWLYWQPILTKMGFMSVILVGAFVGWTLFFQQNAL
The experiment in a line: Inhibition of TC-PTP (unknown origin).

Assay [8] is filed under the species Homo sapiens. The assay is described as follows: Selectivity ratio of IC50 for inhibition of TC-PTP (unknown origin) to IC50 for inhibition of PTP1B (unknown origin).
The target in assay [9] is Dipeptidyl peptidase 4 (Homo sapiens, UniProt P27487). The assay is described as follows: Inhibition of DPP4 (unknown origin).
Sequence of Dipeptidyl peptidase 4 (P27487 whole entry): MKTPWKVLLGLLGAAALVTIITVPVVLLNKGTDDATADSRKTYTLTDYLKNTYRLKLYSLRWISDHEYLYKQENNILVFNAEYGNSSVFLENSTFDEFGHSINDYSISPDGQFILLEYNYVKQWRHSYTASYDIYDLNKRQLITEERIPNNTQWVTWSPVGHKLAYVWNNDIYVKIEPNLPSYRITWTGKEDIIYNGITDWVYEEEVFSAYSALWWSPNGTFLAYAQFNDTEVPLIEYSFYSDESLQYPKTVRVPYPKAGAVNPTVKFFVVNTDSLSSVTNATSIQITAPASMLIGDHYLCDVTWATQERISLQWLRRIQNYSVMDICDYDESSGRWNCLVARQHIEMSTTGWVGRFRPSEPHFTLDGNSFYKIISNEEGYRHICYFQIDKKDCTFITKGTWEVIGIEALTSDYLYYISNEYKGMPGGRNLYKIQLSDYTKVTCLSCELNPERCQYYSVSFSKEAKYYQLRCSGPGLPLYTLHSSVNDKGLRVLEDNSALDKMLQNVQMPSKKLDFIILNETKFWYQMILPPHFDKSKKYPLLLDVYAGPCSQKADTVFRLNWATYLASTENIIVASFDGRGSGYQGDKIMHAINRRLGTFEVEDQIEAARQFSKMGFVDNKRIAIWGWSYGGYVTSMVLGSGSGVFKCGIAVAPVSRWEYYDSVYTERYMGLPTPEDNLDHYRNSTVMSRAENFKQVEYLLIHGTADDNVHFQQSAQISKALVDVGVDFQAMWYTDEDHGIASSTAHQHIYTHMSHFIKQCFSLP
Assay [10] in a line: Inhibition of bovine kidney ALR1 in presence of NADPH by UV spectrophotometric analysis. The assay is classed as tissue-based, Bos taurus.
Assay [11] deals with T2, Tyrosine-protein phosphatase non-receptor type 1. The assay is described as follows: Inhibition of PTP1B (unknown origin) using pNPP as substrate for 2 mins by spectroscopic analysis.
Assay [12] shares this target. The assay is described as follows: Competitive inhibition of PTP1B (unknown origin) assessed as inhibition constant using pNPP as substrate by Michaelis-Menten based analysis.
Assay [13] addresses T4, Fructose-1,6-bisphosphatase 1 (Homo sapiens, UniProt P09467).
T4 sequence (P09467 whole entry): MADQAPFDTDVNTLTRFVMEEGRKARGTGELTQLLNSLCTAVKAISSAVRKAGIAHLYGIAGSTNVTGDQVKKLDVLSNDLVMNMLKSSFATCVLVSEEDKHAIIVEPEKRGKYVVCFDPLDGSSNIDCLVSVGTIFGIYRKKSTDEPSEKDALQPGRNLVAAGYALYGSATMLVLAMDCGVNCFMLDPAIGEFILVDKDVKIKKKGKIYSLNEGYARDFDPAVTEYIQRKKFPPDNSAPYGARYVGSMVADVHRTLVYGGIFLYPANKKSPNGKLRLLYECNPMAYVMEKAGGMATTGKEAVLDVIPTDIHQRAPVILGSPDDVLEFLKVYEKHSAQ
The assay is described as follows: Inhibition of FBPase (unknown origin).

Sequence of Free fatty acid receptor 1 (O14842 whole entry): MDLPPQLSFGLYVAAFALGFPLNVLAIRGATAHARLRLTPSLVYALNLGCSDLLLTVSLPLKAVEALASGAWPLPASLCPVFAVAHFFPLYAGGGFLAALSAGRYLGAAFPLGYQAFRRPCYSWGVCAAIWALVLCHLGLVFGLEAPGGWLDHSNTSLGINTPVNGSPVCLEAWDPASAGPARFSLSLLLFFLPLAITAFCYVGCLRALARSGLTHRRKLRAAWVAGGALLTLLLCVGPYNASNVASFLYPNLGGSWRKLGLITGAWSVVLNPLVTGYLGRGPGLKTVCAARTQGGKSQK

As usually defined, the IC50 is the concentration at which inhibition is half-maximal. As for `CC1=C(CC(=O)O)c2cc(F)ccc2/C1=C\c1ccc([S+](C)[O-])cc1` (stereo not drawn), the IC50 in [1] came out at 293 nM. As for `Cc1ccc(-c2nn(-c3ccccc3)cc2/C=C2\SC(=S)N(c3cccc(Br)c3)C2=O)cc1`, the IC50 in assay [2] is 1220 nM. One may read the EC50 as the midpoint of the concentration-response curve. With `COc1cc(N2CCC(Oc3ccc(N4N=C(C(F)(F)F)[C@@H](C)C4CC(=O)O)cc3)[C@H](N)C2)c(Cl)cn1` (stereo partly drawn), the concentration for a half-maximal effect (EC50) in assay [3] came to 71 nM.

Consider `CSc1ccc(COc2ccc(-c3ncc(C)c(N4CCN(c5ncc(OCC=C(C)C)cn5)CC4)n3)cc2)cc1`, for which the EC50 in assay [4] was determined as 24 nM. `O=c1[nH]ncn1-c1ccc(-c2ccc(N3CCNCC3)nc2)cc1`: the EC50 in [5] worked out at 2.8 nM. For `Oc1cc(Cc2cc(O)c(Br)c(Br)c2Br)c(Br)c(Br)c1O`, the IC50 in assay [6] was determined as 2400 nM.

On to `Cc1ccc(N2C(=O)/C(=C/c3cn(-c4ccccc4)nc3-c3ccc([N+](=O)[O-])cc3)SC2=S)cc1`, for which the IC50 in assay [2] was determined as 2340 nM. Consider `COc1cc(/C=C2\SC(=S)N(Cc3ccc(C(=O)O)cc3)C2=O)ccc1OCc1ccccc1`, for which the IC50 is 3500 nM in assay [7] and 1100 nM in assay [6]. In assay [8], the Ratio IC50 is 2. Regarding `O=c1c2cc(O)c(O)cc2oc2cc(O)cc(O)c12`, the IC50 in assay [6] turned out to be 9200 nM. Consider `O=C1NC(=O)[C@@]2(CCOc3ccc(F)cc32)N1` [SORBINIL], for which, in [2], the IC50 came to 3.1 nM. As to `CC#CCn1c(N2CCC[C@@H](N)C2)nc2c(C)c(=O)n(Cc3nc(C)c4c(F)cccc4n3)c(=O)n21`, in assay [9], the IC50 was found to be 0.5 nM.

For the compound `CCCC(CCC)C(=O)O` [VALPROIC ACID], the IC50 in [10] was 57400 nM. The Ki is a dissociation constant, usually derived from enzyme kinetics or from competition with a known ligand. `C[C@H](CCC(=O)O)[C@H]1CCC2C3CC=C4C(C)(C)c5c(cnn5-c5ccc(F)cc5)C[C@]4(C)C3CC[C@@]21C` (stereo partly drawn): in [11], the IC50 is 420 nM. Further, the Ratio IC50 in assay [8] worked out at 11. For the same compound, the inhibitory constant (Ki) in assay [12] turned out to be 260 nM.

In turn, `Cc1ccc(-c2nnc(-c3cccc(NC(=O)CCCCO)c3)o2)cc1` came in with an IC50 in assay [13] of 5610 nM.
